# Ends that are not written are not given here.
# Assays:
# Assay type in all cases: cell-based, human
# HLA-A29 = experiment: 51Cr release lytic assay with GAGE-3 to 6 derived peptides (HLA-A29); conditions: FIG. 8; successive deletions of SEQ ID NO: 21
# Experimental: The lysis assay employed was a chromium release assay following Herin et at., Int. […] The target melanoma cells were grown in vitro, and then resuspended at 10^7 cells/ml in DMEM, supplemented with 10 mM Hepes and 30% FCS, and incubated for 45 minutes at 37° C. with 200 μCi/ml of Na(^51Cr)O4. Labeled cells were washed three times with DMEM supplemented with 10 mM Hepes. These were then resuspended in DMEM supplemented with 10 mM Hepes and 10% FCS, after which 100 ul aliquots containing 10^3 cells, were distributed into 96 well microplates. Samples of PBLs were added in 100 ul of the same medium, and assays were earned out in duplicate. Plates were centrifuged for 4 minutes at 100 g, and incubated for four hours at 37° C. in an 8% CO2 atmosphere.
# The peptide (SEQ ID NO: 21) was tested in a ^51Cr release experiment, following the method described supra.
# Successive deletions were prepared, and tested for their ability to provoke lysis, again using the ^51Cr lytic assay.
# CTL 76/6 = experiment: TNF release by CTL 76/6 on peptide-pulsed COS-7 cells transfected with HLA-Cw6 cDNA; conditions: peptide 20 ug/ml, 90 minutes at 37° C., 3000 CTLs, TNF in supernatant after eighteen hours tested on WEHI-164-13 cells
# Experimental: Each peptide was pulsed into COS-7 cells previously transfected with HLA-Cw6 cDNA, and combined with CTL 76/6 to determine if TNF release would be induced. Peptides (20 ug/ml) were added to COS-7 cells which had been transfected with the HLA-Cw6 cDNA twenty-four hours previously After incubation at 37° C. for 90 minutes, medium was discarded, and 3000 CTLs were added in 100 microliters of medium, containing 25 units/ml of IL-2. Eighteen hours later, TNF content of supernatant was tested via determining toxicity on WEHI-164-13 cells. […] The second peptide was used for further experiments.
# LB33-EBV cells = experiment: 51Cr release lysis of peptide-incubated LB33-EBV cells (HLA-Cw6 positive) by CTL 76/6; conditions: CTL 76/6, effector:target ratio 10:1, four hours at 37° C., varying peptide concentration (FIG. 3)
# Experimental: The lysis assay employed was a chromium release assay following Herin et at., Int. J. Cancer 39;390-396 (1987), the disclosure of which is incorporated by reference. The assay, however, is described herein. The target melanoma cells were grown in vitro, and then resuspended at 10^7 cells/ml in DMEM, supplemented with 10 mM Hepes and 30% FCS, and incubated for 45 minutes at 37° C. with 200 μCi/ml of Na(^51Cr)O4. Labeled cells were washed three times with DMEM supplemented with 10 mM Hepes. These were then resuspended in DMEM supplemented with 10 mM Hepes and 10% FCS, after which 100 ul aliquots containing 10^3 cells, were distributed into 96 well microplates. Samples of PBLs were added in 100 ul of the same medium, and assays were earned out in duplicate. Plates were centrifuged for 4 minutes at 100 g, and incubated for four hours at 37° C. in an 8% CO2 atmosphere.
# Plates were centrifuged again, and 100 ul aliquots of supernatant were collected and counted. Percentage of ^51Cr release was calculated as follows: [formula] where ER is observed, experimental ^51Cr release, SR is spontaneous release measured by incubating 10^3 labeled cells in 200 ul of medium alone, and MR is maximum release, obtained by adding 100 ul 0.3% Triton X-100 to target cells.
# Various peptides based upon SEQ ID NO: 13 were synthesized, and tested, some of which are presented below. To carry out these tests ^51Cr labelled LB33-EBV cells, which are HLA-Cw6 positive, were incubated with one of the following peptides:
# Levels of lysis for positive (“F^+”, MZ2-MEL.3.1), and negative (“F”; MZ2-MEL.2.2.5) control cells are indicated, in FIG. 3.
# HLA-Cw6 positive cells = experiment: Lysis of peptide-pulsed HLA-Cw6 positive cells by CTL 82/31; conditions: HLA-Cw6 positive cells pulsed with peptide; results not reported in detail
# Experimental: In results not reported here, a second CTL was tested (CTL 82/31).
substance,measurement,setting,value
RSTYYWPRPRRYVQ [SEQ ID NO: 21],ability to provoke lysis (51Cr release),HLA-A29,did provoke lysis
TYRPRPRRYVEPPEMI [SEQ ID NO: 13],TNF induced,CTL 76/6,more than 30 pg/ml
"YRPRPRRY [SEQ ID NO: 4, octamer tumor rejection antigen presented by HLA-Cw6]",CTL lysis (51Cr release),LB33-EBV cells,the best peptide
same,lysis by second CTL (CTL 82/31),HLA-Cw6 positive cells,lysed HLA-Cw6 positive cells
TYRPRPRRY [SEQ ID NO: 5],CTL lysis (51Cr release),LB33-EBV cells,induced CTL lysis albeit to a lesser extent
MSWRGRSTYRPRPRR [SEQ ID NO: 12],TNF induced,CTL 76/6,less than 10 pg/ml
TRPRPRRYV [SEQ ID NO: 6],CTL lysis (51Cr release),LB33-EBV cells,induced CTL lysis albeit to a lesser extent
Tyr Tyr Trp Pro Arg Pro Arg Arg Tyr [SEQ ID NO: 22],ability to provoke lysis (51Cr release),HLA-A29,shortest peptide to provoke lysis

# Source: patent US6939707B2, “Isolated nucleic acid molecules which encode GAGE genes and uses thereof” (Ludwig Institute for Cancer Research, priority 1993, dated 2005)
